What all share (type): cell-based
For assay [1], the target named is T1, hGIPR (Homo sapiens, UniProt P48546).
T1 sequence (P48546 22-466): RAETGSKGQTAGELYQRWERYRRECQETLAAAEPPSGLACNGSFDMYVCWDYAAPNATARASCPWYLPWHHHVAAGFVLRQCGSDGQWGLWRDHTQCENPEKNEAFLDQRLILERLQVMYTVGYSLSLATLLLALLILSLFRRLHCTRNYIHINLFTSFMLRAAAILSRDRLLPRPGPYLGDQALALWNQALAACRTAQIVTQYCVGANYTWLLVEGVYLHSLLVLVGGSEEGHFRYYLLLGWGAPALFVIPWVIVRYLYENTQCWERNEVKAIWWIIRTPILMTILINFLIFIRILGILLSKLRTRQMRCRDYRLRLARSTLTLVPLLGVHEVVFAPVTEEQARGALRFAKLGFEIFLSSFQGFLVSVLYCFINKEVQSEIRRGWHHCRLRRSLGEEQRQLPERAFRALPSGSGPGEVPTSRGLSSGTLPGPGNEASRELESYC
Put plainly: Functional cAMP activity in the presence of 1% HSA. The following applies: read-out: cAMP Rel EC50, hGIPR.

Assay [2] deals with T2, hGLP-1R (Homo sapiens, UniProt P43220). Put plainly: Functional cAMP activity in the presence of 1% HSA. The note with it: read-out: cAMP Rel EC50, hGLP-1R.
Another assay concerns the target human GcgR (Homo sapiens, UniProt P47871). Briefly: Functional cAMP activity in the presence of 1% HSA. The note with it: read-out: cAMP Rel EC50, hGcgR.
Assay [3] deals with T1, hGIPR. Briefly: Functional cAMP activation in the presence of 0.1% casein (no HSA). The following applies: read-out: Relative cAMP EC50, hGIPR.
Assay [4] addresses T2, hGLP-1R. Described as above. The following applies: read-out: Relative cAMP EC50, hGLP-1R.
For another assay, the target named is hGcgR (Homo sapiens, UniProt P47871). Described as above. The following applies: read-out: Relative cAMP EC50, hGcgR.
[5] abbreviates: in the presence of 0.1% casein (no HSA), geometric mean.
The mark [6] stands for this setting: HEK-293 clonal cell line, 1% HSA, geometric mean of relative EC50.
Where [7] appears, read: in the presence of 0.1% casein (no HSA), geometric mean of relative EC50.
[8] abbreviates: HEK-293 clonal cell line, in the presence of 1% HSA, geometric mean of relative EC50.

Like-named read-outs stand apart in the source and are kept apart here. Starred links: 1 amine or outer side, 2 acyl side, 3 side chain; linkers in the order of their positions; H or OH if unused. Non-standard residues stand in square brackets, D forms with d. Groups on a side chain read outwards from the residue. No end group written: not given here. *: point of attachment. C20 diacid = O=C(O)CCCCCCCCCCCCCCCCCCC(=O)*; C18 diacid = O=C(O)CCCCCCCCCCCCCCCCC(=O)*; αMePhe(2-F) = C[C@](N)(Cc1ccccc1F)C(=O)O; γGlu = O=C(O)[C@H](CCC(=O)[*:2])N[*:1]; αMe4Pal = C[C@](N)(Cc1ccncc1)C(=O)O; αMeY = C[C@](N)(Cc1ccc(O)cc1)C(=O)O; 4Pal = N[C@@H](Cc1ccncc1)C(=O)O; Aad = N[C@@H](CCCC(=O)O)C(=O)O; αMeL = CC(C)C[C@](C)(N)C(=O)O; αMeS = C[C@](N)(CO)C(=O)O; Orn = NCCC[C@H](N)C(=O)O; AEEA = NCCOCCOCC(=O)O; Aib = CC(C)(N)C(=O)O
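Wherever Relative cAMP EC50, hGIPR is given: intracellular cAMP rise after 30 min at 37 °C read by HTRF against a standard curve, scaled between buffer alone (0%) and top control ligand concentration (100%), four-parameter fit.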
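Wherever Relative cAMP EC50, hGLP-1R is given: intracellular cAMP rise after 30 min at 37 °C read by HTRF, normalized between buffer only (0%) and maximal control ligand (100%), four-parameter variable-slope fit.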
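Wherever Relative cAMP EC50, hGcgR is given: intracellular cAMP rise after 30 min at 37 °C, read by HTRF against a cAMP standard curve, scaled from buffer only (0%) to maximal control ligand response (100%).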

human GcgR, sequence (P47871 26-477): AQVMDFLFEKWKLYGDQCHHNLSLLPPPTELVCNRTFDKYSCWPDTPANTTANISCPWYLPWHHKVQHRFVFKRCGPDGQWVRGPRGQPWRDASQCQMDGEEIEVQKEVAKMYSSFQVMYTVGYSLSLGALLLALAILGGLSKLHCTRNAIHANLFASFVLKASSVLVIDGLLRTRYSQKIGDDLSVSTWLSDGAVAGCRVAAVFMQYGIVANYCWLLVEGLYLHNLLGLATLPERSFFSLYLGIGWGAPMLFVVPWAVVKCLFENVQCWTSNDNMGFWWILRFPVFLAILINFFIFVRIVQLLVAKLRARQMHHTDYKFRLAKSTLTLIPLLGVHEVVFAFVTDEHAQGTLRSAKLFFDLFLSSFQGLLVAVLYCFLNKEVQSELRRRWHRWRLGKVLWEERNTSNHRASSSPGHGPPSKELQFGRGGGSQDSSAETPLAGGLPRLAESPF
hGcgR, sequence (P47871 26-477): as above
T2 sequence (P43220 24-463): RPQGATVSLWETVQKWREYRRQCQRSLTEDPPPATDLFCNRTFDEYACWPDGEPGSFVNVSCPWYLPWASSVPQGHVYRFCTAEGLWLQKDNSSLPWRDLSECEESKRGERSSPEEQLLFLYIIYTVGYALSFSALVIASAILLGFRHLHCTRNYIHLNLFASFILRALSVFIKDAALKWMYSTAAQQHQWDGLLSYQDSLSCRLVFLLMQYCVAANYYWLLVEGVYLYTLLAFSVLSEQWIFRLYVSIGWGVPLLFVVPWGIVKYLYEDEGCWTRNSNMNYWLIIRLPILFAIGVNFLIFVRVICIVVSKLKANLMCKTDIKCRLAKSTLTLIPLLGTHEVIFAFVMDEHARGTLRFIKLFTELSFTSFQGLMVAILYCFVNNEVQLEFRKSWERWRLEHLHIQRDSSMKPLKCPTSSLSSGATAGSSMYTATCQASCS

The term EC50 denotes the concentration giving half of the maximal effect. With “H-Y[Aib]QGT[αMePhe(2-F)]TSD[4Pal][αMeS]I[αMeL]LD[Orn]K([AEEA-γGlu-C18 diacid])AQ[αMe4Pal]EFI[dE][αMeY]LVEGGPSSGEPPPGGE-NH2 [Example 1155]”, the 50% effective concentration (EC50) turned out to be 0.888 nM at hGIPR [1]; 44.4 nM on hGLP-1R [2]; 288 nM on human GcgR; 0.00917 nM on hGIPR [3] (setting [5]); 0.434 nM at hGLP-1R [4] (setting [5]); 1.83 nM at hGcgR (setting [5]).
On to “Y[Aib]QGT[αMePhe(2-F)]TSD[4Pal]SI[αMeL]LD[Orn]K([AEEA-γGlu-C18 diacid])AQ[αMe4Pal][Orn]FI[dE][αMeY]LIEGGPSSGEPPPEGEG[dE]-NH2 [Example 692]”, for which the EC50 on hGIPR [1] (setting [6]) was determined as 1.25 nM; on hGLP-1R [2] (setting [6]), 25.2 nM; at human GcgR (setting [6]) it was 380 nM; at hGIPR [3] (setting [7]), 0.0106 nM; at hGLP-1R [4] (setting [7]) it was 0.252 nM; on hGcgR (setting [7]), 2.14 nM.
As to “Y[Aib]QGT[αMePhe(2-F)]TSD[4Pal][αMeS]I[αMeL]LD[Orn]K([AEEA-γGlu-C18 diacid])AQ[αMe4Pal]EFI[dE][αMeY]LIEGGPSSGEPPPSGE-NH2 [Example 1141]”, the EC50 at hGIPR [1] came to 0.816 nM; on hGLP-1R [2] it was 47.5 nM; on human GcgR, 169 nM; at hGIPR [3] (setting [5]) it was 0.00921 nM; on hGLP-1R [4] (setting [5]) it was 0.412 nM; on hGcgR (setting [5]), 1.15 nM.
In the case of “H-Y[Aib]QGTFTSD[4Pal]SK[αMeL]LDKK([AEEA-γGlu-C18 diacid])AQ[Aib]AFIEYLIE[Aib]GPSSGAPPPSGS-NH2 [Example 801]”, the EC50 came to 18.1 nM on hGIPR [1]; 133 nM on hGLP-1R [2]; 1200 nM on human GcgR; 0.147 nM on hGIPR [3] (setting [5]); 0.938 nM at hGLP-1R [4] (setting [5]); 5.51 nM on hGcgR (setting [5]).
Regarding “H-Y[Aib]QGT[αMePhe(2-F)]TSD[4Pal][αMeS]I[αMeL]LD[Orn]K([γGlu-γGlu-C18 diacid])AQ[Aib][Orn]FI[dE]YLIEGGPSSGEPPPSGTEEE-NH2 [Example 540]”, the EC50 on hGIPR [1] amounted to 1.93 nM; on hGLP-1R [2], 38.2 nM; at human GcgR, 405 nM; on hGIPR [3], 0.0296 nM; on hGLP-1R [4], 0.686 nM; at hGcgR, 5.62 nM.
Take “H-Y[Aib]QGTFTSD[4Pal]SQ[αMeL]LD[Orn]K([γGlu-γGlu-C18 diacid])AQ[αMe4Pal]AFIEYLIAGGPSSGEPPPSGTEEE-NH2 [Example 986]”: the EC50 on hGIPR [1] (setting [8]) came to 31.3 nM; on hGLP-1R [2] (setting [8]), 380 nM; on human GcgR (setting [8]), 702 nM; at hGIPR [3] (setting [5]), 0.299 nM; on hGLP-1R [4] (setting [5]), 3.06 nM; at hGcgR (setting [5]) it was 4.94 nM.
For the molecule `CC[C@H](C)[C@H](NC(=O)[C@H](CO)NC(=O)[C@H](Cc1ccc(O)cc1)NC(=O)[C@H](CC(=O)O)NC(=O)[C@H](CO)NC(=O)[C@@H](NC(=O)[C@](C)(Cc1ccccc1F)NC(=O)[C@@H](NC(=O)CNC(=O)[C@H](CCC(N)=O)NC(=O)C(C)(C)NC(=O)[C@@H](N)Cc1ccc(O)cc1)[C@@H](C)O)[C@@H](C)O)C(=O)N[C@@H](CC(C)C)C(=O)N[C@@H](CC(C)C)C(=O)N[C@@H](CC(=O)O)C(=O)N[C@@H](CCCN)C(=O)N[C@@H](CCCCNC(=O)CC[C@H](NC(=O)CC[C@H](NC(=O)CCCCCCCCCCCCCCCCC(=O)O)C(=O)O)C(=O)O)C(=O)N[C@@H](C)C(=O)N[C@@H](CCC(N)=O)C(=O)NC(C)(C)C(=O)N[C@@H](C)C(=O)N[C@@H](Cc1ccccc1)C(=O)N[C@H](C(=O)N[C@H](CCC(=O)O)C(=O)N[C@@H](Cc1ccc(O)cc1)C(=O)N[C@@H](CC(C)C)C(=O)N[C@@H](CC(C)C)C(=O)N[C@@H](CCC(=O)O)C(=O)NCC(=O)NCC(=O)N1CCC[C@H]1C(=O)N[C@@H](CO)C(=O)N[C@@H](CO)C(=O)NCC(=O)N[C@@H](C)C(=O)N1CCC[C@H]1C(=O)N1CCC[C@H]1C(=O)N1CCC[C@H]1C(=O)N[C@@H](CO)C(N)=O)[C@@H](C)CC` [Example 428], the EC50 at hGIPR [1] came out at 4.55 nM; on hGLP-1R [2], 38.2 nM; on human GcgR it was 536 nM; on hGIPR [3] it was 0.01 nM; on hGLP-1R [4], 0.207 nM; at hGcgR, 2.35 nM.
In the case of “Y[Aib]QGTFTSD[4Pal]S[Orn][αMeL]LD[Orn]K([AEEA-γGlu-C18 diacid])AQ[Aib]AFIE[αMeY]LLEGGPSSGAPPPSGS-NH2 [Example 933]”, the EC50 on hGIPR [1] came out at 35.1 nM; on hGLP-1R [2] it was 557 nM; on human GcgR it was 1530 nM; on hGIPR [3] (setting [5]), 0.259 nM; on hGLP-1R [4] (setting [5]), 2.32 nM; on hGcgR (setting [5]) it was 5.51 nM.
As for “H-Y[Aib]QGT[αMePhe(2-F)]TSD[4Pal][αMeS]I[αMeL]LD[Orn]K([γGlu-γGlu-C18 diacid])AQ[Aib][Orn]FI[dE][αMeY]LSEGGPSSGEPPPSGSE-NH2 [Example 560]”, the EC50 on hGIPR [1] came out at 7.94 nM; at hGLP-1R [2], 52 nM; at human GcgR it was 355 nM; on hGIPR [3], 0.113 nM; at hGLP-1R [4], 0.883 nM; at hGcgR, 3.8 nM.
Turning to “H-Y[Aib]QGTFTSD[4Pal]SQ[αMeL]LD[Orn]K([γGlu-γGlu-C18 diacid])AQ[αMe4Pal]AFIEYLIE[Aib]GPSSGAPPPSGSEE-NH2 [Example 937]”, the EC50 at hGIPR [1] was determined as 19.7 nM; at hGLP-1R [2], 261 nM; on human GcgR, 1160 nM; on hGIPR [3] (setting [5]), 0.222 nM; at hGLP-1R [4] (setting [5]) it was 2.52 nM; on hGcgR (setting [5]), 5.52 nM.
“H-Y[Aib]QGTFTSD[4Pal]SQ[αMeL]LD[Orn]K([γGlu-γGlu-C18 diacid])AQ[αMe4Pal]AFIEYLIA[Aib]GPSSGAPPPSGSEE-NH2 [Example 1091]”: the EC50 on hGIPR [1] stood at 5.79 nM; on hGLP-1R [2], 145 nM; on human GcgR, 550 nM; at hGIPR [3] (setting [5]), 0.0592 nM; on hGLP-1R [4] (setting [5]), 1.23 nM; at hGcgR (setting [5]) it was 4.67 nM.
Take “H-Y[Aib]QGT[αMePhe(2-F)]TSD[4Pal][αMeS]I[αMeL]LD[Orn]K([γGlu-γGlu-C18 diacid])AQ[αMe4Pal]EFI[dE][αMeY]LIEGGPSSGEPPPSGSE-NH2 [Example 716]”: the EC50 on hGIPR [1] was 0.557 nM; on hGLP-1R [2], 24.1 nM; on human GcgR, 100 nM; at hGIPR [3], 0.00853 nM; at hGLP-1R [4], 0.321 nM; on hGcgR, 1.12 nM.
With “H-Y[Aib]QGT[αMePhe(2-F)]TSD[4Pal]SILLDKK([γGlu-γGlu-C18 diacid])AQ[Aib]AFIE[αMeY]LEEGGPSSGAPPPSGTGE-NH2 [Example 664]”, the EC50 on hGIPR [1] was 1.18 nM; on hGLP-1R [2], 27.7 nM; on human GcgR it was 179 nM; at hGIPR [3], 0.0159 nM; on hGLP-1R [4], 0.356 nM; on hGcgR, 2.12 nM.
Regarding “H-Y[Aib]QGT[αMePhe(2-F)]TSD[4Pal][αMeS]I[αMeL]LD[Orn]K([γGlu-γGlu-C18 diacid])AQ[Aib]NFI[dE][αMeY]LQEGGPSSGEPPPEGT-NH2 [Example 525]”, the EC50 is 2.07 nM at hGIPR [1]; 20.2 nM at hGLP-1R [2]; 460 nM at human GcgR; 0.0351 nM at hGIPR [3]; 0.426 nM at hGLP-1R [4]; 10 nM at hGcgR.
For “Y[Aib]QGT[αMePhe(2-F)]TSD[4Pal]SILLDKK([γGlu-γGlu-C18 diacid])AQ[Aib]AFIEYL[Aad]EGGPSSGAPPPSGTGE-NH2 [Example 661]”, the EC50 at hGIPR [1] came out at 4.62 nM; at hGLP-1R [2], 50.9 nM; at human GcgR, 160 nM; at hGIPR [3] it was 0.0665 nM; at hGLP-1R [4] it was 1.13 nM; on hGcgR, 1.78 nM.
Consider “H-Y[Aib]QGT[αMePhe(2-F)]TSDFSILLDKQAQK([AEEA-AEEA-γGlu-C20 diacid])AFIEYLLEGGPSSGEPPPSEG-NH2 [Example 346]”, for which the EC50 on hGIPR [1] was found to be 28.3 nM; on hGLP-1R [2], 514 nM; at human GcgR it was 4310 nM; at hGIPR [3] (setting [5]) it was 0.0738 nM; at hGLP-1R [4] (setting [5]) it was 1.17 nM; at hGcgR (setting [5]), 15.6 nM.

For the origin of these results see patent publication US20240270821A1, “GIP/GLP1/GCG TRI-RECEPTOR AGONISTS AND USES THEREOF” (priority 2023, published 2024).
